According to US6815546B2, “Analogues of camptothecin, their use as medicaments and the pharmaceutical compositions containing them” (Societe de Recherches et d'Applications Scientifiques …, priority 1995, dated 2004):

Key:
Format in all cases: cell-based
[1] = system: L1210 (mouse lymphocytic leukemia); assay: Test on cell proliferation (MTT test), L1210; conditions: 48 hours
Procedure: (§1) a. Eight tumoral cell lines are used in this study: L1210 (mouse lymphocytic leukemia), HCT15 and LOVO (cell lines of human colon adenocarcinoma), A549 (human lung carcinoma), A172, U373 et U87 (human glioblastoma). All these lines are obtained from the American Type Culture Collection (ATCC), Rockville, Md. The L1210 cell cultures in suspension are cultured in Dulbecco's modified Eagle's medium (DMEM) (BioWhitaker, Verviers, Belgium) together with 10% of foetal calf serum inactivated by heating, 2 mM of glutamine, 50 μg/ml of penicillin and 50 μg/ml of streptomycin. The HT29 cells are cultured in mono-layer cultures in a McCoy 5a medium (Gibco, Paisley, United Kingdom) together with 10% of foetal calf serum inactivated by heat plus 2 mM of glutamine and 50 μg/ml of gentamycin. The other cells are cultured in an Earle's modified essential medium (EMEM; Gibco, Paisley, United Kingdom) together with 5% foetal calf serum inactivated by heat, 2 mM of glutamine, 50 U/ml of penicillin and 50 μg/ml of streptomycin. All the cell lines are cultured at 37° C. in a humidified atmosphere containing 95% air and 5% CO2.
(§2) Inhibition of the tumor cell line proliferation is determined using an MTT test. 1500 L1210 cells in a culture medium (according to the needs of the cell medium) are seeded in a well of a micro-well plate (tissue culture level: 96 wells, flat bottom) 24 hours before treatment with the compounds to be tested. For these dose-response studies, the cells are incubated with each of the compounds to be tested or their corresponding solvent (controls) for 48 hours over a final concentration range of 1.10^−10 to 1.10^−4 M. All the compounds are dissolved just before use in dimethylsulphoxide (DMSO) at a concentration of 50 mM. Other dilutions of the medicaments are carried out in the culture medium. The final concentration of DMSO never exceeds 0.2% (v/v). As controls, the solutions of medicaments are replaced with the solvent which is diluted successively in the same way as the compounds to be tested.
(§3) After the incubation period, the labeling reagent MTT (3-[4,5-dimethylthiazol-2-yl]-2,5-diphenyltetrazolium bromide; Thiazol blue, Sigma M 565, Sigma, St Louis, Mo.) is added at a final concentration of 0.3 mg/ml to each well. The cells are incubated for 4 hours at 37° C. in a humidified atmosphere. This stage allows the mitochondrial dehydrogenase of the living cells to convert the yellow tetrazolium salt MTT into crimson formazan crystals. The supernatant part is eliminated and the formazan crystals formed are solubilized with DMSO. The resultant coloured solution is quantified by absorbance at 570 nm by using a multi-cuvette scanning spectrophotometer. The data concerning the proliferation is expressed as a percentage of living cells in the treated wells, divided by the living cells in the controls. Each point represents the average of three independent experiments, each experiment represents six determinations.
(§4) The results are expressed as percentages of the calculated proliferation by the optical density (OD) of the cells treated with a medicament divided by the OD of the control cells (cells treated with DMSO). As represented in Table II, the compounds to be tested have inhibited the proliferation of cells in a dose-dependent manner.

[2] = system: A549 (human lung carcinoma); assay: Test on cell proliferation (MTT test), A549; conditions: 72 hours
Procedure: as §1, §2, §3
(§5) For the other cell lines (HCT15, LOVO, A549, A172, U373, U87), 1000 to 2000 cells are seeded in the well of a micro-well plate 24 hours before medicinal treatment. […]
as §4

U87 (human glioblastoma) = assay: Test on cell proliferation (MTT test), U87; conditions: 72 hours
Procedure: as §1, §2, §3, §5, §4

[3] = system: HCT15 (cell lines of human colon adenocarcinoma); assay: Test on cell proliferation (MTT test), HCT15; conditions: 72 hours
Procedure: as §1, §2, §3, §5, §4

[4] = system: A172 (human glioblastoma); assay: Test on cell proliferation (MTT test), A172; conditions: 72 hours
Procedure: as §1, §2, §3, §5, §4

[5] = system: U373 (human glioblastoma); assay: Test on cell proliferation (MTT test), U373; conditions: 72 hours
Procedure: as §1, §2, §3, §5, §4

CCC1(O)CC(=O)OCc2c1cc1n(c2=O)Cc2cc3ccccc3nc2-1 (stereo not drawn) [Example 3, 5-ethyl-5-hydroxy-1,4,5,13-tetrahydro-3H,15H-oxepino [3′,4′:6,7]indolizino[1,2-b]quinoline-3,15-dione]
PERCENTAGE OF CELL PROLIFERATION ([1]; 0.1 nM): 87.22% | PERCENTAGE OF CELL PROLIFERATION ([1]; 1 nM): 68.92% | PERCENTAGE OF CELL PROLIFERATION ([1]; 10 nM): 42.64% | PERCENTAGE OF CELL PROLIFERATION ([1]; 100 nM): 26.85% | PERCENTAGE OF CELL PROLIFERATION ([1]; 1 000 nM): 10.83% | PERCENTAGE OF CELL PROLIFERATION ([1]; 10 000 nM): 2.11% | PERCENTAGE OF CELL PROLIFERATION ([1]; 100 000 nM): 2.20% | PERCENTAGE OF CELL PROLIFERATION ([2]; 0.1 nM): 132.00% | PERCENTAGE OF CELL PROLIFERATION ([2]; 1 nM): 111.00% | PERCENTAGE OF CELL PROLIFERATION ([2]; 10 nM): 75.00% | PERCENTAGE OF CELL PROLIFERATION ([2]; 100 nM): 39.00% | PERCENTAGE OF CELL PROLIFERATION ([2]; 1 000 nM): 35.00% | PERCENTAGE OF CELL PROLIFERATION ([2]; 10 000 nM): 10.00% | PERCENTAGE OF CELL PROLIFERATION ([2]; 100 000 nM): 11.00% | PERCENTAGE OF CELL PROLIFERATION (U87 (human glioblastoma); 0.1 nM): 108.00% | PERCENTAGE OF CELL PROLIFERATION (U87 (human glioblastoma); 1 nM): 85.00% | PERCENTAGE OF CELL PROLIFERATION (U87 (human glioblastoma); 10 nM): 42.00% | PERCENTAGE OF CELL PROLIFERATION (U87 (human glioblastoma); 100 nM): 23.00% | PERCENTAGE OF CELL PROLIFERATION (U87 (human glioblastoma); 1 000 nM): 15.00% | PERCENTAGE OF CELL PROLIFERATION (U87 (human glioblastoma); 10 000 nM): 5.00% | PERCENTAGE OF CELL PROLIFERATION (U87 (human glioblastoma); 100 000 nM): 6.00% | PERCENTAGE OF CELL PROLIFERATION ([3]; 0.1 nM): 86.00% | PERCENTAGE OF CELL PROLIFERATION ([3]; 1 nM): 84.00% | PERCENTAGE OF CELL PROLIFERATION ([3]; 10 nM): 58.00% | PERCENTAGE OF CELL PROLIFERATION ([3]; 100 nM): 44.00% | PERCENTAGE OF CELL PROLIFERATION ([3]; 1 000 nM): 18.00% | PERCENTAGE OF CELL PROLIFERATION ([3]; 10 000 nM): 9.00% | PERCENTAGE OF CELL PROLIFERATION ([3]; 100 000 nM): 13.00% | PERCENTAGE OF CELL PROLIFERATION ([4]; 0.1 nM): 89.00% | PERCENTAGE OF CELL PROLIFERATION ([4]; 1 nM): 101.00% | PERCENTAGE OF CELL PROLIFERATION ([4]; 10 nM): 68.00% | PERCENTAGE OF CELL PROLIFERATION ([4]; 100 nM): 37.00% | PERCENTAGE OF CELL PROLIFERATION ([4]; 1 000 nM): 27.00% | PERCENTAGE OF CELL PROLIFERATION ([4]; 10 000 nM): 10.00% | PERCENTAGE OF CELL PROLIFERATION ([4]; 100 000 nM): 7.00% | PERCENTAGE OF CELL PROLIFERATION ([5]; 0.1 nM): 99.00% | PERCENTAGE OF CELL PROLIFERATION ([5]; 1 nM): 98.00% | PERCENTAGE OF CELL PROLIFERATION ([5]; 10 nM): 40.00% | PERCENTAGE OF CELL PROLIFERATION ([5]; 100 nM): 24.00% | PERCENTAGE OF CELL PROLIFERATION ([5]; 1 000 nM): 17.00% | PERCENTAGE OF CELL PROLIFERATION ([5]; 10 000 nM): 13.00% | PERCENTAGE OF CELL PROLIFERATION ([5]; 100 000 nM): 9.00%
